# Results as given in BindingDB's records for doi:10.7270/Q2N58K09 (The Scripps Research Institute Molecular Screening Center, 2013).
# Molecular target: Huntingtin (Homo sapiens, UniProt P42858)
# Sequence (P42858 whole entry): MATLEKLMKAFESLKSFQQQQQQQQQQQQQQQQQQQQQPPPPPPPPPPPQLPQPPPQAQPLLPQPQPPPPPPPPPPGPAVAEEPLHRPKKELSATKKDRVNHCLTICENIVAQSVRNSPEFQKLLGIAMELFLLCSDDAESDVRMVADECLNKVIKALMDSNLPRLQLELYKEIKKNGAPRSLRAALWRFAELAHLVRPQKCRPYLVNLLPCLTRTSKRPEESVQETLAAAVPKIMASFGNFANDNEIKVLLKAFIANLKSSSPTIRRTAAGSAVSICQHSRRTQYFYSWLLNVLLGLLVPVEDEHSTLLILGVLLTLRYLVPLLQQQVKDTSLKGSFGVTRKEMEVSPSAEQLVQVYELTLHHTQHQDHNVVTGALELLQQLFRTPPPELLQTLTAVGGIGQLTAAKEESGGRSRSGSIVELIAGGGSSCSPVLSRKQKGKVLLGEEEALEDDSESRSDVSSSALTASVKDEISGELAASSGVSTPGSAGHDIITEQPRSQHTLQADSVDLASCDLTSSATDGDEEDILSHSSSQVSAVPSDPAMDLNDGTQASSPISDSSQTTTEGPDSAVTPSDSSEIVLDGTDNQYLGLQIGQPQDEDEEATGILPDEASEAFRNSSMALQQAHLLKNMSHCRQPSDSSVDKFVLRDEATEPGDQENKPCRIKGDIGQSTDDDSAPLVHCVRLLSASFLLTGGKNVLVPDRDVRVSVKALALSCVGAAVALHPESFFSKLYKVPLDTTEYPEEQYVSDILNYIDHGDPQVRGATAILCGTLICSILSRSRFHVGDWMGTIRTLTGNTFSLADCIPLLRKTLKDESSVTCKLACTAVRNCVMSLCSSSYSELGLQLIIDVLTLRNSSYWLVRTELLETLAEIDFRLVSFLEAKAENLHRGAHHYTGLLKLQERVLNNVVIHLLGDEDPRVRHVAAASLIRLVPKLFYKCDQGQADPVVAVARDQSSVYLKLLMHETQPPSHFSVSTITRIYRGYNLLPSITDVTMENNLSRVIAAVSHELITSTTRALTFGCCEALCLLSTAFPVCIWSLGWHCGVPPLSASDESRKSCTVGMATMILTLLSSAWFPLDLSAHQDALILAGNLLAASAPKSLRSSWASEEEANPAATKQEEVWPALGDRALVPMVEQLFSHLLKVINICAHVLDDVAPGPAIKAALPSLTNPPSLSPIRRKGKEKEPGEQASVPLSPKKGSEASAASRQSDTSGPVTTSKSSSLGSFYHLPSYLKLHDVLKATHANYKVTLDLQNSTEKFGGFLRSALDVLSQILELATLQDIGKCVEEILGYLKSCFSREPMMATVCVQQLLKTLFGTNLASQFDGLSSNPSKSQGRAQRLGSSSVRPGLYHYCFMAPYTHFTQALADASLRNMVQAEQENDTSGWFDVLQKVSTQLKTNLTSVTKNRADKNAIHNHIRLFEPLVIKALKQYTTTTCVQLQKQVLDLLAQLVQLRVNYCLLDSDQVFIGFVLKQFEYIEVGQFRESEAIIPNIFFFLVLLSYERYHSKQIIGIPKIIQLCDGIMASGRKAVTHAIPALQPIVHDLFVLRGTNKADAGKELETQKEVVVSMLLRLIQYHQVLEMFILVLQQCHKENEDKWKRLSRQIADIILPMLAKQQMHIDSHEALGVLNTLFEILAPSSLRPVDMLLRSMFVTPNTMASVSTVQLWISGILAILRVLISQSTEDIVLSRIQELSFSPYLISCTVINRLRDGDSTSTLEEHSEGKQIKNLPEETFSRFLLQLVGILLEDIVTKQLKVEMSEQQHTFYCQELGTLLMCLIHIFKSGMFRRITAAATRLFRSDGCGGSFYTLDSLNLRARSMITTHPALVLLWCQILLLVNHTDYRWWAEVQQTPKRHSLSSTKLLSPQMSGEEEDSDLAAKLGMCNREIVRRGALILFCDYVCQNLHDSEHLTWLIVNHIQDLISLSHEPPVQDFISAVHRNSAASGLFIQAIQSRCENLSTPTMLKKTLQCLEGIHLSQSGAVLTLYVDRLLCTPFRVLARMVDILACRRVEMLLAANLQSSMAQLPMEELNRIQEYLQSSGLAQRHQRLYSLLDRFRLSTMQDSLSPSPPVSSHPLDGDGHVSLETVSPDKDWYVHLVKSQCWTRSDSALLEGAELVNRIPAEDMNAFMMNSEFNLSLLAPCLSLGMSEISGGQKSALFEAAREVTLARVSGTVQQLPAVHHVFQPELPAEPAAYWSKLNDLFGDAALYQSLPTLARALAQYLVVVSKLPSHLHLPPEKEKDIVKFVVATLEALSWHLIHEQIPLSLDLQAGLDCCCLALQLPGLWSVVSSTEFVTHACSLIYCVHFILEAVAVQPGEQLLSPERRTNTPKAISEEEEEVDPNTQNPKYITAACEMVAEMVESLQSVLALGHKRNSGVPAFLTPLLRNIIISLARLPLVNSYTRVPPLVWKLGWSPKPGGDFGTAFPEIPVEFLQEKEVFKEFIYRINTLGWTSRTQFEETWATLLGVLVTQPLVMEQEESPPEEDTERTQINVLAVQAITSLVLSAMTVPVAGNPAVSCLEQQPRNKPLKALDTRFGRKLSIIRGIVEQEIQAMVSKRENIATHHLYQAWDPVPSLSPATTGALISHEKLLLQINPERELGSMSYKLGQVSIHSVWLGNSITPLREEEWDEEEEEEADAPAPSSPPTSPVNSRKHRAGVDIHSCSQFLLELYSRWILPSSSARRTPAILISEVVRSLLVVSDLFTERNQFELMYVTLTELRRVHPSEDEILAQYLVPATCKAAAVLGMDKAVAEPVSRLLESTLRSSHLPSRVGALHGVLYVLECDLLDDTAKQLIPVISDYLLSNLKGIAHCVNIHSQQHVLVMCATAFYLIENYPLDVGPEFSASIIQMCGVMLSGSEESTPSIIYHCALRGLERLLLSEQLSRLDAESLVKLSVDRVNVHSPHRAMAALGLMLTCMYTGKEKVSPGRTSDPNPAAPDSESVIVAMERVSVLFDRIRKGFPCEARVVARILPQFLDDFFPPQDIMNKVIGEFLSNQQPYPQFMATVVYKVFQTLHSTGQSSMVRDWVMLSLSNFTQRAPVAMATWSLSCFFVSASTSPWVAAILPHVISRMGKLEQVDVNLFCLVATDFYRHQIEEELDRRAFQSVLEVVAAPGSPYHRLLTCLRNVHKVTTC
row,Structure (SMILES),IC50 [nM]
1,"N=C(NN=Cc1cccs1)Sc1cc(O)n(-c2ccc(Br)cc2)c1O [[1-(4-bromophenyl)-2,5-dioxopyrrolidin-3-yl] N'-[(E)-thiophen-2-ylmethylideneamino]carbamimidothioate]",8270
2,"CCOC(=O)C1=C(C)N=C(SCc2cc(=O)[nH][nH]2)C(C#N)C1c1cccs1 (stereo unspecified) [5-cyano-2-methyl-6-[(5-oxo-1,2-dihydropyrazol-3-yl)methylthio]-4-thiophen-2-yl-1,4-dihydropyridine-3-carboxylic acid ethyl ester]",7400
3,C=CCOc1c(OC)cc(CN=Nc2cccc(C(=O)O)c2)c(Br)c1Br,2280
4,O=C1C(=O)N(c2nc3ccc(Cl)cc3s2)C(c2ccco2)C1C(=O)c1ccco1 (stereo unspecified),987
5,"CCN(CC)C(=O)NC1CC2CCCC(C1)N2Cc1ccccc1 (stereo unspecified) [1,1-diethyl-3-[9-(phenylmethyl)-9-azabicyclo[3.3.1]nonan-3-yl]urea]",2830
6,"Cc1[nH]n(C(N)=S)c(=O)c1N=Nc1c(Br)cc(Br)cc1Br [3-methyl-5-oxo-4-[(2,4,6-tribromophenyl)diazenyl]-4H-pyrazole-1-carbothioamide]",5730
7,N#CC(C#N)C(=Nc1ccc(F)cc1)SCc1cccc(Br)c1 [2-[(3-bromophenyl)methylsulfanyl-[(4-fluorophenyl)amino]methylidene]propanedinitrile],7570
8,N#CC(C(=O)Nc1ccc(Cl)cc1)C(=S)Nc1ccccc1 (stereo unspecified) [(Z)-3-anilino-N-(4-chlorophenyl)-2-cyano-3-sulfanylprop-2-enamide],6140
9,"Cc1cc(N2C(=O)C(=O)C(C(=O)c3cc4ccccc4o3)C2c2cccc(Cl)c2)no1 (stereo unspecified) [3-(1-benzofuran-2-ylcarbonyl)-2-(3-chlorophenyl)-1-(5-methyl-1,2-oxazol-3-yl)-4-oxidanyl-2H-pyrrol-5-one]",1190
10,"CCCOc1ccc(-n2c(O)cc(SC(=N)NN=C(C)c3cccs3)c2O)cc1 [2,5-dioxo-1-(4-propoxyphenyl)-3-pyrrolidinyl 2-[1-(2-thienyl)ethylidene]hydrazinecarbimidothioate]",7760
11,CC(C)c1ccc(C2c3[nH]c4ccccc4c3Cc3c(O)n(-c4ccccc4C(=O)N4CCC[C@@H]4C(=O)O)c(=O)n32)cc1 (stereo partly specified),2840
12,CC(=O)C1C(=O)C(=O)N(c2cc(C(C)(C)C)on2)C1c1ccc(Br)cc1 (stereo unspecified),2490
13,"COC(=O)c1sc(N2C(=O)C(=O)C(C(=O)c3ccc(C)o3)C2c2ccc([N+](=O)[O-])cc2)nc1C (stereo unspecified) [methyl 2-[4-hydroxy-3-(5-methylfuran-2-carbonyl)-2-(4-nitrophenyl)-5-oxo-2H-pyrrol-1-yl]-4-methyl-1,3-thiazole-5-carboxylate]",636
14,CC(C)c1ccc(C2c3[nH]c4ccccc4c3Cc3c(O)n(-c4ccccc4C(=O)N4CCC[C@H]4C(=O)O)c(=O)n32)cc1 (stereo partly specified),3350
15,"N#CC1=c2sc(=Cc3ccco3)c(=O)n2C(=N)C(C#N)C1c1ccco1 (stereo unspecified) [5-amino-7-(furan-2-yl)-2-(furan-2-ylmethylidene)-3-oxo-7H-[1,3]thiazolo[3,2-a]pyridine-6,8-dicarbonitrile]",5380
16,"Cc1ccc2nc(N3C(=O)C(=O)C(C(=O)c4ccco4)C3c3ccc(C)o3)sc2c1 (stereo unspecified) [3-[2-furanyl(oxo)methyl]-4-hydroxy-1-(6-methyl-1,3-benzothiazol-2-yl)-2-(5-methyl-2-furanyl)-2H-pyrrol-5-one;oxalic acid]",624
17,"COc1ccc2nc(N3C(=O)C(=O)C(C(=O)c4ccco4)C3c3ccc(OC)c(OC)c3)sc2c1 (stereo unspecified) [2-(3,4-dimethoxyphenyl)-3-(furan-2-carbonyl)-4-hydroxy-1-(6-methoxy-1,3-benzothiazol-2-yl)-2H-pyrrol-5-one]",2040
18,CCCOc1cccc(C2C(C(=O)c3ccc(C)o3)C(=O)C(=O)N2c2nc(C)c(C(C)=O)s2)c1 (stereo unspecified),4060
19,"Cc1ccc2c(c1)C(=NNc1cccc(C(=O)O)c1)C(=O)N2C [3-[(2Z)-2-(1,5-dimethyl-2-oxidanylidene-indol-3-ylidene)hydrazinyl]benzoic acid]",5070

# Second part, the molecule after the results:
row,IC50 [nM],Structure (SMILES)
1,1900,CCc1nnc(NS(=O)(=O)c2ccc(N=CCC(=O)c3ccc(C)cc3)cc2)s1 [SMR000211931]
2,2500,Oc1ccc(CN=Nc2ccnc3cc(Cl)ccc23)c(O)c1O [SMR000590557]
3,2890,O=C(O)c1ccc(-n2c(O)cc(SC(=Nc3ccc(F)cc3)NCc3ccc4c(c3)OCO4)c2O)cc1 [SMR000313486]
4,2570,C=c1c(C#N)c2[nH]c(N)c(C#N)c(C)c-2c1=Cc1ccc(-c2ccccc2C(=O)O)o1 [SMR000277284]
5,1470,N#CC1C(=O)NC(c2ccc(-c3cc(Cl)ccc3Cl)o2)N(c2ccccc2)C1=S (stereo unspecified) [MLS000592167]
6,5190,CC(=NNC(=N)Sc1cc(O)n(-c2cccc(Cl)c2)c1O)c1cccs1 [MLS000579124]
7,2900,COC1=CC(=Cc2c(-c3ccccc3)[nH]n(-c3ccc(NC(C)=O)cc3)c2=O)C=CC1=O [SMR000299432]
